SMILES strings stand for the structures.

This passage reports EC50 results from patent US20230250106A1, “COMPOUNDS AND COMPOSITIONS FOR TREATING CONDITIONS ASSOCIATED WITH STING ACTIVITY” (IFM Due, Inc., priority 2020, published 2023).

This assay relates to STING pathway. The assay is described as follows: STING reporter assay: luciferase reporter activity in THP1-Dual KO-IFNAR2 cells activated with 2'3'cGAMP. The assay is classed as cell-based. Conditions: Homo sapiens, 2'3'cGAMP 15 μM, 24 h, read-out: hSTING EC50. The method, then:
STING pathway activation by the compounds described herein was measured using THP1-Dual™ cells (KO-IFNAR2).
THP1-Dual™ KO-IFNAR2 Cells (obtained from invivogen) were maintained in RPMI, 10% FCS, 5 ml P/S, 2 mM L-glut, 10 mM Hepes, and 1 mM sodium pyruvate. Compounds were spotted in empty 384 well tissue culture plates (Greiner 781182) by Echo for a final concentration of 0.0017-100 μM. Cells were plated into the TC plates at 40 μL per well, 2×10E6 cells/mL. For activation with STING ligand, 2′3′cGAMP (MW 718.38, obtained from Invivogen), was prepared in Optimem media.
The following solutions were prepared for each 1×384 plate: • Solution A: 2 mL Optimem with one of the following stimuli: • 60 μL of 10 mM 2′3′cGAMP→150 μM stock • Solution B: 2 mL Optimem with 60 μL Lipofectamine 2000→Incubate 5 min at RT
2 mL of solution A and 2 ml Solution B was mixed and incubated for 20 min at room temperature (RT). 20 μL of transfection solution (A+B) was added on top of the plated cells, with a final 2′3′cGAMP concentration of 15 μM. The plates were then centrifuged immediately at 340 g for 1 minute, after which they were incubated at 37° C., 5% CO2,>98% humidity for 24 h. Luciferase reporter activity was then measured. EC50 values were calculated by using standard methods known in the art.
Luciferase reporter assay: 10 μL of supernatant from the assay was transferred to white 384-plate with flat bottom and squared wells. One pouch of QUANTI-Luc™ Plus was dissolved in 25 mL of water. 100 μL of QLC Stabilizer per 25 mL of QUANTI-Luc™ Plus solution was added. 50 μL of QUANTI-Luc™ Plus/QLC solution per well was then added. Luminescence was measured on a Platereader (e.g., Spectramax I3X (Molecular Devices GF3637001)).
Luciferase reporter activity was then measured. EC50 values were calculated by using standard methods known in the art.

For the compound `N#Cc1cc(C(=O)Nc2c[nH]c3cc(F)c(F)cc23)cnc1N1CCC(F)(F)CC1` [Compound 107, 5-cyano-N-(5,6-difluoro-1H-indol-3-yl)-6-(4,4-difluoropiperidin-1-yl)nicotinamide], the EC50 lay within 0.2 to 1 µM.
The figure for `O=C(Nc1c[nH]c2cc(F)c(F)cc12)c1ccc(C2CC(F)(F)C2)cc1` [Compound 108, N-(5,6-difluoro-1H-indol-3-yl)-4-(3,3-difluorocyclobutyl)benzamide] is 0.2 to 1 µM; for `O=C(Nc1c[nH]c2cc(F)ccc12)c1cnc(N2CCC(F)(F)CC2)c(Cl)c1` [Compound 190, 5-chloro-6-(4,4-difluoropiperidin-1-yl)-N-(6-fluoro-1H-indol-3-yl)nicotinamide] it is 0.2 to 1 µM; for `O=C(Nc1c[nH]c2cc(F)c(F)cc12)c1ccc(OCCCC(F)(F)F)c(F)c1` [Compound 142, N-(5,6-difluoro-1H-indol-3-yl)-3-fluoro-4-(4,4,4-trifluorobutoxy)benzamide] it is 0.2 to 1 µM.
As to `O=C(Nc1c[nH]c2cc(F)c(F)cc12)c1ccc(OC(F)(F)F)nc1` [Compound 197, N-(5,6-difluoro-1H-indol-3-yl)-6-(trifluoromethoxy)pyridine-3-carboxamide], the EC50 lay in the range of 0.2 to 1 µM.
In the case of `COC1(C)CN(c2ncc(C(=O)Nc3c[nH]c4cc(F)c(F)cc34)cc2C)C1` [Compound 183, N-(5,6-difluoro-1H-indol-3-yl)-6-(3-methoxy-3-methylazetidin-1-yl)-5-methylnicotinamide], the EC50 is 1 to 5 µM.
The figure for `COCCNc1cc(C(=O)Nc2c[nH]c3cc(F)c(F)cc23)ccn1` [Compound 238, N-(5,6-difluoro-1H-indol-3-yl)-2-((2-methoxyethyl)amino)isonicotinamide] is 5 to 100 µM; for `COCCNc1cc(C(=O)Nc2c[nH]c3cc(F)c(F)cc23)ccc1C(F)(F)F` [Compound 236, N-(5,6-difluoro-1H-indol-3-yl)-3-((2-methoxyethyl)amino)-4-(trifluoromethyl)benzamide] it is 0.2 to 1 µM.
For `O=C(Nc1c[nH]c2cc(F)c(F)cc12)c1ccc(OCCC(F)(F)F)c(F)c1` [Compound 160, N-(5,6-difluoro-1H-indol-3-yl)-3-fluoro-4-(3,3,3-trifluoropropoxy)benzamide], the EC50 is 0.04 to 0.2 µM.
`O=C(Nc1c[nH]c2cc(F)c(F)cc12)c1cnc(CN2CC(F)(F)C2)c(Cl)c1` [Compound 255, 5-chloro-N-(5,6-difluoro-1H-indol-3-yl)-6-((3,3-difluoroazetidin-1-yl)methyl)nicotinamide]: the EC50 was in the range of 1 to 5 µM.
As for `O=C(Nc1c[nH]c2cc(F)c(F)cc12)c1ccc(C2(O)CCC(F)(F)CC2)cc1` [Compound 187, 4-(4,4-difluoro-1-hydroxycyclohexyl)-N-(5,6-difluoro-1H-indol-3-yl)benzamide], the EC50 was 0.2 to 1 µM.
Turning to `N#Cc1cc(C(=O)Nc2c[nH]c3cc(F)c(F)cc23)ccc1OCCCC(F)(F)F` [Compound 150, 3-cyano-N-(5,6-difluoro-1H-indol-3-yl)-4-(4,4,4-trifluorobutoxy)benzamide], the half-maximal effective concentration (EC50) was 0.04 to 0.2 µM.
As to `O=C(Nc1c[nH]c2cc(F)c(F)cc12)c1cnc(N2CCC3(CC2)CC3(F)F)c(F)c1` [Compound 219, N-(5,6-difluoro-1H-indol-3-yl)-6-(1,1-difluoro-6-azaspiro[2.5]octan-6-yl)-5-fluoronicotinamide], the EC50 was in the range of 0.04 to 0.2 µM.
With `CC(C)Oc1ccc(C(=O)Nc2c[nH]c3cc(F)c(F)cc23)cc1C#N` [Compound 120, 3-cyano-N-(5,6-difluoro-1H-indol-3-yl)-4-(propan-2-yloxy)benzamide], the EC50 was in the range of 0.2 to 1 µM.
Turning to `Cc1ccc(C(=O)Nc2c[nH]c3cc(F)c(F)cc23)cc1OCCCC(F)(F)F` [Compound 172, N-(5,6-difluoro-1H-indol-3-yl)-4-methyl-3-(4,4,4-trifluorobutoxy)benzamide], the EC50 lay in the range of 0.2 to 1 µM.
For `O=C(Nc1c[nH]c2cc(F)c(F)cc12)c1ccc(OCCN2CCCCC2)cc1` [Compound 129, N-(5,6-difluoro-1H-indol-3-yl)-4-[2-(piperidin-1-yl)ethoxy]benzamide], the EC50 lay within 1 to 5 µM.
